In PubChem BioAssay (NCI):
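96-well plates; 48 h exposure; 5 concentrations. Endpoints by linear interpolation between flanking doses. Not reached: highest tested concentration assigned. GI50 = concentration required for 50% inhibition of growth. TGI: total growth inhibition.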

Experiments:
Experiment in all cases: NCI anticancer screen, dose series, 48 h
TK-10 renal = system: TK-10 renal
MDA-MB-468 breast = system: MDA-MB-468 breast
786-0 renal = system: 786-0 renal
MDA-MB-435 = system: MDA-MB-435
NCI-H23 lung = system: NCI-H23 lung
MALME-3M melanoma = system: MALME-3M melanoma
OVCAR-8 ovarian = system: OVCAR-8 ovarian
EKVX NSCLC = system: EKVX NSCLC
T-47D breast = system: T-47D breast
SK-MEL-5 melanoma = system: SK-MEL-5 melanoma
CAKI-1 renal = system: CAKI-1 renal
IGROV1 ovarian = system: IGROV1 ovarian
OVCAR-4 ovarian = system: OVCAR-4 ovarian
NCI-H226 lung = system: NCI-H226 lung
UACC-62 melanoma = system: UACC-62 melanoma
UACC-257 melanoma = system: UACC-257 melanoma
SK-MEL-28 melanoma = system: SK-MEL-28 melanoma
HS 578T breast = system: HS 578T breast
DU-145 prostate = system: DU-145 prostate
SF-295 CNS = system: SF-295 CNS
NCI/ADR-RES ovarian = system: NCI/ADR-RES ovarian
UO-31 renal = system: UO-31 renal
HCT-116 colon = system: HCT-116 colon
HOP-62 NSCLC = system: HOP-62 NSCLC
NCI-H522 lung = system: NCI-H522 lung
U251 CNS = system: U251 CNS
K-562 leukemia = system: K-562 leukemia
CCRF-CEM leukemia = system: CCRF-CEM leukemia
A498 renal = system: A498 renal
PC-3 prostate = system: PC-3 prostate
COLO 205 colon = system: COLO 205 colon
SN12C renal = system: SN12C renal
SK-MEL-2 melanoma = system: SK-MEL-2 melanoma
SNB-19 CNS = system: SNB-19 CNS
RXF 393 renal = system: RXF 393 renal
ACHN renal = system: ACHN renal
SW-620 colon = system: SW-620 colon
M14 melanoma = system: M14 melanoma
NCI-H460 lung = system: NCI-H460 lung
OVCAR-5 ovarian = system: OVCAR-5 ovarian
LOX IMVI melanoma = system: LOX IMVI melanoma
KM12 colon = system: KM12 colon
OVCAR-3 ovarian = system: OVCAR-3 ovarian
MDA-MB-231 breast = system: MDA-MB-231 breast
SK-OV-3 ovarian = system: SK-OV-3 ovarian
MCF7 breast = system: MCF7 breast
HCC-2998 colon = system: HCC-2998 colon
MOLT-4 leukemia = system: MOLT-4 leukemia
SF-268 CNS = system: SF-268 CNS
SF-539 CNS = system: SF-539 CNS
SR leukemia = system: SR leukemia
RPMI-8226 leukemia = system: RPMI-8226 leukemia
HCT-15 colon = system: HCT-15 colon
HL-60(TB) leukemia = system: HL-60(TB) leukemia
BT-549 breast = system: BT-549 breast
HT29 colon = system: HT29 colon

Compound: CN1CCN(c2ccc(C(=O)/C=C/c3cc(C(F)(F)F)cc(C(F)(F)F)c3)cc2)CC1
- GI50 (TK-10 renal): 2000 nM
- TGI (TK-10 renal): 3450 nM
- GI50 (MDA-MB-468 breast): 1240 nM
- TGI (MDA-MB-468 breast): 2560 nM
- GI50 (786-0 renal): 1680 nM
- TGI (786-0 renal): 3110 nM
- GI50 (MDA-MB-435): 1600 nM
- TGI (MDA-MB-435): 3070 nM
- GI50 (NCI-H23 lung): 1510 nM
- TGI (NCI-H23 lung): 2970 nM
- GI50 (MALME-3M melanoma): 1660 nM
- TGI (MALME-3M melanoma): 3070 nM
- GI50 (OVCAR-8 ovarian): 1730 nM
- TGI (OVCAR-8 ovarian): 4360 nM
- GI50 (EKVX NSCLC): 1870 nM
- TGI (EKVX NSCLC): 3410 nM
- GI50 (T-47D breast): 1270 nM
- TGI (T-47D breast): 3100 nM
- GI50 (SK-MEL-5 melanoma): 1550 nM
- TGI (SK-MEL-5 melanoma): 2900 nM
- GI50 (CAKI-1 renal): 1660 nM
- TGI (CAKI-1 renal): 3260 nM
- GI50 (IGROV1 ovarian): 1650 nM
- TGI (IGROV1 ovarian): 3150 nM
- GI50 (OVCAR-4 ovarian): 1520 nM
- TGI (OVCAR-4 ovarian): 3490 nM
- GI50 (NCI-H226 lung): 1490 nM
- TGI (NCI-H226 lung): 3200 nM
- GI50 (UACC-62 melanoma): 1500 nM
- TGI (UACC-62 melanoma): 2860 nM
- GI50 (UACC-257 melanoma): 1730 nM
- TGI (UACC-257 melanoma): 3580 nM
- GI50 (SK-MEL-28 melanoma): 1680 nM
- TGI (SK-MEL-28 melanoma): 3050 nM
- GI50 (HS 578T breast): 4880 nM
- TGI (HS 578T breast): 34700 nM
- GI50 (DU-145 prostate): 1630 nM
- TGI (DU-145 prostate): 3040 nM
- GI50 (SF-295 CNS): 1470 nM
- TGI (SF-295 CNS): 2820 nM
- GI50 (NCI/ADR-RES ovarian): 1640 nM
- TGI (NCI/ADR-RES ovarian): 3640 nM
- GI50 (UO-31 renal): 1460 nM
- TGI (UO-31 renal): 2780 nM
- GI50 (HCT-116 colon): 1150 nM
- TGI (HCT-116 colon): 2450 nM
- GI50 (HOP-62 NSCLC): 1860 nM
- TGI (HOP-62 NSCLC): 3750 nM
- GI50 (NCI-H522 lung): 1400 nM
- TGI (NCI-H522 lung): 2970 nM
- GI50 (U251 CNS): 1660 nM
- TGI (U251 CNS): 3180 nM
- GI50 (K-562 leukemia): 1070 nM
- TGI (K-562 leukemia): 6370 nM
- GI50 (CCRF-CEM leukemia): 2380 nM
- TGI (CCRF-CEM leukemia): 5870 nM
- GI50 (A498 renal): 17900 nM
- TGI (A498 renal): 35600 nM
- GI50 (PC-3 prostate): 1640 nM
- TGI (PC-3 prostate): 3320 nM
- GI50 (COLO 205 colon): 2030 nM
- TGI (COLO 205 colon): 3870 nM
- GI50 (SN12C renal): 1300 nM
- TGI (SN12C renal): 2590 nM
- GI50 (SK-MEL-2 melanoma): 1730 nM
- TGI (SK-MEL-2 melanoma): 3230 nM
- GI50 (SNB-19 CNS): 1730 nM
- TGI (SNB-19 CNS): 3100 nM
- GI50 (RXF 393 renal): 1190 nM
- TGI (RXF 393 renal): 2570 nM
- GI50 (ACHN renal): 1490 nM
- TGI (ACHN renal): 2820 nM
- GI50 (SW-620 colon): 1810 nM
- TGI (SW-620 colon): 4510 nM
- GI50 (M14 melanoma): 1520 nM
- TGI (M14 melanoma): 2970 nM
- GI50 (NCI-H460 lung): 2890 nM
- TGI (NCI-H460 lung): > 100000 nM
- GI50 (OVCAR-5 ovarian): 1680 nM
- TGI (OVCAR-5 ovarian): 3200 nM
- GI50 (LOX IMVI melanoma): 1350 nM
- TGI (LOX IMVI melanoma): 2630 nM
- GI50 (KM12 colon): 1760 nM
- TGI (KM12 colon): 3820 nM
- GI50 (OVCAR-3 ovarian): 1450 nM
- TGI (OVCAR-3 ovarian): 2940 nM
- GI50 (MDA-MB-231 breast): 1750 nM
- TGI (MDA-MB-231 breast): 3350 nM
- GI50 (SK-OV-3 ovarian): 2600 nM
- TGI (SK-OV-3 ovarian): 6120 nM
- GI50 (MCF7 breast): 1200 nM
- TGI (MCF7 breast): 2560 nM
- GI50 (HCC-2998 colon): 1390 nM
- TGI (HCC-2998 colon): 2680 nM
- GI50 (MOLT-4 leukemia): 1420 nM
- TGI (MOLT-4 leukemia): 5010 nM
- GI50 (SF-268 CNS): 1820 nM
- TGI (SF-268 CNS): 3710 nM
- GI50 (SF-539 CNS): 1640 nM
- TGI (SF-539 CNS): 3000 nM
- GI50 (SR leukemia): 1170 nM
- TGI (SR leukemia): 3930 nM
- GI50 (RPMI-8226 leukemia): 1440 nM
- TGI (RPMI-8226 leukemia): 3800 nM
- GI50 (HCT-15 colon): 1120 nM
- TGI (HCT-15 colon): 2390 nM
- GI50 (HL-60(TB) leukemia): 1040 nM
- TGI (HL-60(TB) leukemia): 2790 nM
- GI50 (BT-549 breast): 1330 nM
- TGI (BT-549 breast): 2660 nM
- GI50 (HT29 colon): 1620 nM
- TGI (HT29 colon): 3410 nM
